{"source": "patent US20230219957A1", "about": "“SMALL MOLECULE CB002-ANALOGES RESTORE THE P53 PATHWAY AND TARGET S-PHASE CHECKPOINT” (Brown University, priority 2020, published 2023)", "key": {"[1]": {"system": "normal human WI38 lung fibroblast cells", "test": "Propidium iodide Sub-G1 analysis in normal cells", "assay_type": "cell-based", "conditions": "forty-eight hours", "method": "Apoptosis assay. Apoptotic cells were quantified by sub-G1 analysis. Cells were seeded at a density of 2.5×10^5to 5×10^5in a 6-well plate and treated forty-eight to seventy-two hours. After treatment, adherent cells were trypsinized and collected along with floating cells, washed with phosphate-buffered saline, and fixed in 70% ethanol. Cells were then incubated in a phosphate-citric acid buffer (0.2M Na2HPO4+0.1M citric acid, pH 7.8) at room temperature for five minutes, spun down, and resuspended for staining with 50 μg/mL propidium iodide (PI) in the presence of 250 μg/mL pancreatic ribonuclease (RNase A). Sub-G1 analyses were performed using an Epics Elite Epics flow cytometer (Coulter-Beckman). Propidium iodide and BrdU flow cytometry assay. Cells were seeded at a density of 5×10^5 in a 6-well plate and treated for forty-eight to seventy-two hours. After treatment, floating cells were collected, and adherent cells were trypsinized, pelleted, washed with phosphate-buffered saline, and fixed in 70% ethanol overnight. For propidium iodide (PI) based Sub-G1 apoptosis analysis, cells were spun down after fixation and resuspended in phosphate-citric acid buffer (0.2M Na2HPO4+0.1M Citric Acid, pH 7.8) at room temperature for five minutes. […] Samples were analyzed on an Epics Elite Epics flow cytometer (Coulter-Beckman)."}, "[2]": {"design": "species or system mice", "conditions": "in vivo, po, 50 mg/kg", "method": "Drug efficacy using in vivo tumor xenografts. In vivo drug efficacy studies were performed on ten NSG female randomized mice per cohort. The mice had tested negative for any pathogen. Tumor inoculation was induced by subcutaneous injection in the left and right dorsal flank, each with a 150 μL suspension of 1-5×10^6 human colon cancer cells in phosphate-buffered saline with Matrigel (1:1). After tumor size reached 100 mm^3, mice were treated 3×/week with dimethyl sulfoxide vehicle or CB002-analog #4 via oral gavage (22-gauge needle) in a solution of 10% dimethyl sulfoxide, 20% Kolliphor® EL (Sigma cat. no. C5135), and 70% phosphate-buffered saline. Mouse weight and tumor measurements were recorded one-two times per week. Tumor volume was calculated as V=0.5*L*W^2, where L is length and W is the width of the tumor. At the end of the assay, mice were euthanized by CO2. All in vivo procedures were performed according to an approved Institutional Animal Care and Use Committee (IACUC) protocol."}}, "data": [{"smiles": "Cn1c(=O)c2[nH]c(Nc3cccc(C(F)(F)F)c3)nc2n(C)c1=O", "note": "[CB002-analog #4]", "values": [{"measurement": "sub-G1 in normal cells", "setting": "[1]", "result": "does not increase sub-G1"}, {"measurement": "tolerability by mouse body weights", "setting": "[2]", "result": "well-tolerated"}]}]}
